Experimental data as given in patent publication US6056966A, “Method and compositions for treating impotence” (Baker Norton Pharmaceuticals, Inc., priority 1998, dated 2000).
Entries after “also recorded” stand apart in the source; their conditions may differ.

Experiments:
rat aortic rings = assay: Vascular reactivity: relaxation of rat aortic rings precontracted with phenylephrine; type: cell-based, Sprague-Dawley rats; details: FIG. 11, rat aortic strips
Text: Aortic rings (2-3 mm wide) from Sprague-Dawley rats were isolated and placed in a tissue bath. The vessels were precontracted with small amounts of phenylephrine. A transducer connected to a recorder was used to assess changes in tension. As noted in FIG. 10, there was no difference in vascular relaxation, either in potency or efficacy, between 1,5-PDN and 1,5-pentane dinitrite.

penis = details: cited from earlier work
penile smooth muscle = details: cited from earlier work
guinea pig penis = assay: Topical application of nitrates to the penis of guinea pigs (change in penile volume); type: in vivo, male outbred Hartley guinea pigs; details: for AUC / AUC, % of 1,5-PDN / Peak Effect (% change) / Peak Effect, % of 1,5-PDN / Time of Peak Effect: guinea pig, in vivo
Text: Sixteen (16) male outbred Hartley guinea pigs were weighed and placed into treatment groups as follows:
The animals were placed in dorsal recumbency and held in place by restraints. The penis was extruded from the prepuce. Care was taken to not manipulate the penis. Length and diameter measurements were made using digital calipers. The length measurement was taken from the prepuce to the tip of the glans when the penis was extended. The diameter was taken 0.5 cm proximally from the tip of the glans.
The appropriate amount of test material was applied with a Wiretrol™ pipette to the base of the exposed penis. When application was complete, a timer was started. Measurements were taken at 0, 1, 2, 5, 10 and 15 minutes after application or until detumescence was observed.
The same procedure was followed to topically apply a series of various other nitrate and dinitrate compounds (in neat form) to the penis of guinea pigs. A summary of the activity of this series of nitrate compounds is shown in Table 2, with the AUC and peak effect values for each compound compared to 1,5-PDN.
The same test procedure was followed as in Example 3, but applying a 10% solution of NTG to the penis in varying dosage amounts.
Twelve (12) male Hartley guinea pigs were placed into treatment groups as follows: […]

corpus cavernosum = assay: Intracavernosal injection in anesthetized rats (cavernosal and arterial blood pressure)
[1] = Intravenous injection of NTG vs. 1,5-pentane dinitrate in conscious rats (mean arterial blood pressure); type: in vivo, rat; details: 30 μg
Experimental: Rats (n=3) with indwelling catheters in the femoral artery for blood pressure measurements and vein for drug administration were given 1 dose of NTG (30 μg) and 6 doses of 1,5-PDN (30 μg-2000 μg) or vehicle (ethanol) in the conscious state. Changes in mean arterial blood pressure (diastolic blood pressure+1/3 (systolic-diastolic blood pressure)) were assessed after each dose of nitrate was given. About 0.5 hr to 1 hr separated the administration of each drug and dose.

SMILES	AUC (guinea pig penis)	AUC, % of 1,5-PDN (guinea pig penis)	Peak Effect (% change) (guinea pig penis)	Peak Effect, % of 1,5-PDN (guinea pig penis)	Time of Peak Effect (guinea pig penis)	other results
O=[N+]([O-])OCC(CO[N+](=O)[O-])O[N+](=O)[O-] [NTG, nitroglycerin]	–	–	–	–	–	vascular relaxation: NTG vs 1,5-PDN (rat aortic rings): no appreciable difference in the vascular relaxation; patients with erections sufficient for vaginal penetration (penis; at home): 30 % of patients; patients with some response (penis; in vivo): 71 % of patients; headache, systemic blood pressure (penile smooth muscle; in vivo): headaches were a common occurrence; also recorded: decrease in systemic blood pressure and development of headache; relaxation of penile smooth muscle and vascular tissue (penile smooth muscle; in vivo): causes relaxation of penile smooth muscle and vascular tissue, including cavernosal tissue; response compared with papaverine or placebo (penile smooth muscle; only one trial): better than papaverine, another vasodilator, or placebo; effect on penile volume (guinea pig penis; topical, FIGS. 1-3, 1,5-PDN vs saline, 10% NTG solution vs 1,5-PDN): minimal effect on penis volume as compared to 1,5-PDN; change in intracavernosal pressure (corpus cavernosum; anesthetized rats, FIGS. 6-8): relatively small, dose-dependent increases in intracavernosal pressure; effect on systemic arterial blood pressure (corpus cavernosum; anesthetized rats, FIGS. 6-8): almost equivalent systemic ("downstream") reductions in arterial blood pressure; systemic reduction in arterial blood pressure (corpus cavernosum; at the highest dose used): over 30 mmHg; decrease in arterial pressure [1]: ~25%
CCCC(C)O[N+](=O)[O-] (centres unmarked) [2-Pentane nitrate]	323	73%	36.0 % change	93%	5 min	–
C=CCCCO[N+](=O)[O-] [1-Pentene-5-nitrate]	309	70%	35.4 % change	91%	2 min	–
CC(C)=CCO[N+](=O)[O-] [2-Methyl-2-butene-4-nitrate]	305	69%	32.6 % change	84%	5 min	–
CC(C)CCO[N+](=O)[O-] [Isoamyl nitrate]	309	70%	40.3 % change	104%	2 min	–
O=[N+]([O-])OC1CCCC1 [Cyclopentyl nitrate]	380	86%	31.8 % change	–	10 min	–
CC(C)CO[N+](=O)[O-] [Isobutyl nitrate]	367	–	38.1 % change	–	2 min	–
